# Experimental data as given in patent US20240374573A1, “IMIDAZOLE CONTAINING COMPOUNDS, DERIVATIVES THEREFORE, AND USES THEREOF” (AglaeaPharma Inc., priority 2023, published 2024).
# Biological target: T1, α2AAR (α2A-adrenergic receptor) (Homo sapiens, UniProt P08913)
# T1 construct: expressed in transfected cells; host or cells: HEK293
# T1 sequence (P08913 1-465): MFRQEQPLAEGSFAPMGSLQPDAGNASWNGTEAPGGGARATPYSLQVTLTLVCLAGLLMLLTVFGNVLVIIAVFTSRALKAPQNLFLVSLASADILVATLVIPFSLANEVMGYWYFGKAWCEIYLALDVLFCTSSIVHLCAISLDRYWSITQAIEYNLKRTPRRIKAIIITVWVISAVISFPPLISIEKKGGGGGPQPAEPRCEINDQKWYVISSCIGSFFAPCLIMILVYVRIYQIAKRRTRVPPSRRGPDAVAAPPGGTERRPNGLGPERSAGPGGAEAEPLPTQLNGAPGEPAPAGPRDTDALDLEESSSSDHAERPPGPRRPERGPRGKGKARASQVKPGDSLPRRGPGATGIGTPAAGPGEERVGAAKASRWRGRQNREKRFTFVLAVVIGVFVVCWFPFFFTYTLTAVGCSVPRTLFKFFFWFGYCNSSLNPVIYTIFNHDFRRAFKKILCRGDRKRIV
# Test: α2AAR FLIPR assay (agonist activity)
# Format: cell-based
# Conditions: FLIPR, α2AAR cell line hosted in HEK293 cells; read-out: α2A agonist activity (EC50)
# Procedure: This experimental protocol involved cell seeding and a FLIPR assay using the α2AAR (α2A-adrenergic receptor) cell line hosted in HEK293 cells. […] On Day 1, the cell seeding process started with the removal of the culture medium, followed by rinsing the cells with DPBS (21-031-CVC, Corning). […] The cells were detached, resuspended in growth media, and centrifuged at room temperature at 1000 rpm for 5 minutes. After discarding the supernatant, the cell pellet was resuspended in growth media to a concentration of 10× 10^5 cells per mL. This suspension was added to 384-well plates (19-Jul-38, Greiner) at 20 μL per well and incubated overnight at 37° C. in 5% CO2.
# A 250 mM Probenecid solution was prepared in this buffer. The Fluo-4 Direct™ Loading Buffer was made by dissolving Fluo-4 Direct™ crystals (F10471, Invitrogen) in the FLIPR Assay Buffer and adding Probenecid. The buffer was then vortexed and allowed to stand for over 5 minutes, shielded from light. For the FLIPR procedure, testing compounds for agonist activite were serially diluted and transferred to a 384-well compound plate (25-Jan-39, Greiner). The cell plate was then treated with 2× Fluo-4 Direct™ loading buffer and incubated for 50 minutes at 37° C. in a 5% CO2 atmosphere, followed by 10 minutes at room temperature. Subsequently, the FLIPR assay buffer was added to the compound plate, which is then centrifuged.
# The cell plate was analyzed in the FLIPR Tetra+ System for fluorescence signals. For the agonist test, reference compounds were added to the cell plates, and fluorescence was measured. The “Max-Min” calculation began from Read 1 to the maximum allowed. The data were analyzed using Prism software to calculate activation percentage for agonists and inhibition percentage for antagonists. The results were then fitted using specific models to determine EC50 for agonists.
# The experimental protocol utilized various reagents and apparatus, including Penicillin/Streptomycin (100×) (SV30010, Hyclone), Poly-L-lysine hydrobromide (P1399, Sigma), and different types of 384-well plates such as the 384-Well PP 2.0 Microplate (PP-0200, LABCYTE) and 384 well Low Dead Volume Microplate (LP-0200, LABCYTE). The use of specific reference compounds like UK14304 was also integral to the assay.
row,EC50 [nM],Structure (SMILES)
1,< 10,Cc1cccc(C(c2cccc(C(=O)NC3CCOCC3)c2)c2c[nH]cn2)c1C (racemic) [compound 121]
2,< 10,Cc1cccc(C(Cc2ccc(NS(C)(=O)=O)cc2)c2c[nH]cn2)c1C (racemic) [compound 136]
3,< 10,Cc1cccc(C(Cc2ccc(C(N)=O)c(F)c2)c2c[nH]cn2)c1C (racemic) [compound 156]
4,10 to 50,Cc1cccc(C(c2c[nH]cn2)c2cccc(C(N)=O)c2F)c1C (centres unmarked) [compound 27]
5,10 to 50,CNS(=O)(=O)c1cccc(C(c2c[nH]cn2)c2cccc(C)c2C)c1 (centres unmarked) [compound 28]
6,10 to 50,Cc1cccc(C(c2cccc(NS(C)(=O)=O)c2)c2c[nH]cn2)c1C (centres unmarked) [compound 29]
7,50 to 250,CC(=O)Nc1cccc(C(c2c[nH]cn2)c2cccc(C)c2C)c1 (centres unmarked) [compound 30]
8,10 to 50,Cc1cccc(C(c2ccnc(C(N)=O)c2)c2c[nH]cn2)c1C (centres unmarked) [compound 31]
9,50 to 250,Cc1cccc(C(c2cccc(NCCC#N)c2)c2c[nH]cn2)c1C (centres unmarked) [compound 32]
10,50 to 250,COCCOCCOCC(c1c[nH]cn1)c1cccc(C)c1C (centres unmarked) [compound 37]
11,10 to 50,Cc1cccc(C(c2c[nH]cn2)c2cccc(C(N)=O)c2Cl)c1C (centres unmarked) [compound 38]

# The next lines start with the molecule.
row,Structure (SMILES),EC50 [nM]
1,"Cc1cccc(C(c2cccc(NC(=O)CC#N)c2)c2c[nH]cn2)c1C (single isomer, unassigned) [10-B]",10 to 50
2,"CNC(=O)NCCOCCOCC(c1c[nH]cn1)c1cccc(C)c1C (single isomer, unassigned) [17-B]",10 to 50
3,"Cc1cccc(C(c2cccc(NC(=O)CCC#N)c2)c2c[nH]cn2)c1C (single isomer, unassigned) [43-B]",10 to 50
4,"Cc1cccc(C(c2cccc(NS(C)(=O)=O)c2)c2c[nH]cn2)c1C (single isomer, unassigned) [44-B]",10 to 50
5,"Cc1cccc(C(c2cccc(C(=O)NCC3CCOCC3)c2)c2c[nH]cn2)c1C (single isomer, unassigned) [98-B]",< 10
6,"Cc1cccc(C(Cc2cccc(NS(=O)(=O)CC3CCOCC3)c2)c2c[nH]cn2)c1C (single isomer, unassigned) [112-B]",10 to 50
7,"Cc1cccc(C(Cc2ccc(C(C)C(=O)O)cc2)c2c[nH]cn2)c1C (single isomer, unassigned) [174-B]",10 to 50
8,"Cc1cccc(C(Cc2ccc(C(C)C(=O)O)cc2)c2c[nH]cn2)c1C (single isomer, unassigned) [174-D]",10 to 50
9,"Cc1cccc(C(Cc2ccc(C(=O)O)cc2)c2c[nH]cn2)c1C (single isomer, unassigned) [175-B]",10 to 50
10,CONC(=O)c1cccc(C(c2c[nH]cn2)c2cccc(C)c2C)c1 (centres unmarked) [compound 1],50 to 250
11,Cc1cccc(C(COCCOCCNC(=O)Nc2ccncn2)c2c[nH]cn2)c1C (centres unmarked) [compound 20],10 to 50
12,Cc1cccc(C(c2cccc(OCCNS(C)(=O)=O)c2)c2c[nH]cn2)c1C (centres unmarked) [compound 22],10 to 50
13,Cc1cccc(C(COCCOCCOCCNS(C)(=O)=O)c2c[nH]cn2)c1C (centres unmarked) [compound 26],10 to 50
14,Cc1cccc(C(c2cccc(N)c2)c2c[nH]cn2)c1C (centres unmarked) [compound 39],50 to 250

# Biological target: T2, α2AAR (Homo sapiens, UniProt P08913)
# T2 construct: host or cells: HEK293 (membranes)
# T2 sequence (P08913 1-465): T1 sequence (P08913 1-465)
# Test: α2AAR binding assay ([3H]-RX 821002 radioligand)
# Conditions: [3H]-RX 821002 0.5 nM, HEK293 membranes; read-out: α2A affinity (Ki)
# Procedure: The α2AR Binding Assay was conducted using a stable HEK293 cell line, specifically constructed by WuXi AppTec for targeting α2AAR. […] Both the assay and wash buffers consist of 50 mM Tris-HCl at a pH of 7.4 (Tris base, Sigma, T1503-1 KG).
# The procedure initiated with the preparation of test compounds and a reference compound, yohimbine (Sigma, Y3125), through an 8-point 4-fold serial dilution, transferring 1 μL of each to the assay plate. […] After scaling, the plates were agitated at room temperature for one hour. Subsequently, the Unifilter-96 GF/C filter plates were pre-soaked with 0.3% PEI (Sigma, P3143) for at least half an hour. The reaction mixtures were then filtered and washed four times with cold wash buffer using a Perkin Elmer Cell harvester. Post-filtration, the plates were dried at 50° C. for one hour. […] The top of the plates was then sealed with TopSeal-A sealing film. The trapped 3H was quantified using a Perkin Elmer MicroBeta2 Reader. […] Finally, the data were analyzed with Prism 5.0 software, employing the “log (inhibitor) vs. response-Variable slope” model for data fitting. This comprehensive process ensured precise assessment of the binding affinity of compounds to the α2AAR.
row,Ki [nM],Structure (SMILES)
1,10 to 50,Cc1cccc(C(c2cccc(C(=O)NC3CCOCC3)c2)c2c[nH]cn2)c1C (racemic) [compound 121]
2,< 10,Cc1cccc(C(Cc2ccc(NS(C)(=O)=O)cc2)c2c[nH]cn2)c1C (racemic) [compound 136]
3,< 10,Cc1cccc(C(Cc2ccc(C(N)=O)c(F)c2)c2c[nH]cn2)c1C (racemic) [compound 156]
4,< 10,Cc1cccc(C(c2c[nH]cn2)c2cccc(C(N)=O)c2F)c1C (centres unmarked) [compound 27]
5,10 to 50,CNS(=O)(=O)c1cccc(C(c2c[nH]cn2)c2cccc(C)c2C)c1 (centres unmarked) [compound 28]
6,< 10,Cc1cccc(C(c2cccc(NS(C)(=O)=O)c2)c2c[nH]cn2)c1C (centres unmarked) [compound 29]
7,50 to 250,CC(=O)Nc1cccc(C(c2c[nH]cn2)c2cccc(C)c2C)c1 (centres unmarked) [compound 30]
8,50 to 250,Cc1cccc(C(c2ccnc(C(N)=O)c2)c2c[nH]cn2)c1C (centres unmarked) [compound 31]
9,50 to 250,Cc1cccc(C(c2cccc(NCCC#N)c2)c2c[nH]cn2)c1C (centres unmarked) [compound 32]

# More lines, now with the values behind:
row,Structure (SMILES),Ki [nM]
1,"Cc1cccc(C(c2cccc(NC(=O)CC#N)c2)c2c[nH]cn2)c1C (single isomer, unassigned) [10-B]",10 to 50
2,"CNC(=O)NCCOCCOCC(c1c[nH]cn1)c1cccc(C)c1C (single isomer, unassigned) [17-B]",10 to 50
3,"Cc1cccc(C(c2cccc(NC(=O)CCC#N)c2)c2c[nH]cn2)c1C (single isomer, unassigned) [43-B]",10 to 50
4,"Cc1cccc(C(c2cccc(NS(C)(=O)=O)c2)c2c[nH]cn2)c1C (single isomer, unassigned) [44-B]",< 10
5,"Cc1cccc(C(c2cccc(C(=O)NCC3CCOCC3)c2)c2c[nH]cn2)c1C (single isomer, unassigned) [98-B]",< 10
6,"Cc1cccc(C(Cc2cccc(NS(=O)(=O)CC3CCOCC3)c2)c2c[nH]cn2)c1C (single isomer, unassigned) [112-B]",< 10
7,"Cc1cccc(C(Cc2ccc(C(C)C(=O)O)cc2)c2c[nH]cn2)c1C (single isomer, unassigned) [174-B]",10 to 50
8,"Cc1cccc(C(Cc2ccc(C(C)C(=O)O)cc2)c2c[nH]cn2)c1C (single isomer, unassigned) [174-D]",10 to 50
9,"Cc1cccc(C(Cc2ccc(C(=O)O)cc2)c2c[nH]cn2)c1C (single isomer, unassigned) [175-B]",50 to 250
10,CONC(=O)c1cccc(C(c2c[nH]cn2)c2cccc(C)c2C)c1 (centres unmarked) [compound 1],50 to 250
11,Cc1cccc(C(COCCOCCNC(=O)Nc2ccncn2)c2c[nH]cn2)c1C (centres unmarked) [compound 20],50 to 250
12,Cc1cccc(C(c2cccc(OCCNS(C)(=O)=O)c2)c2c[nH]cn2)c1C (centres unmarked) [compound 22],10 to 50
13,Cc1cccc(C(COCCOCCOCCNS(C)(=O)=O)c2c[nH]cn2)c1C (centres unmarked) [compound 26],50 to 250
